Measurements taken from DBAASP.
Converted amounts (≈) assume the structure as drawn. One block for each compound: values may come before it.

Legend:
Assay in all cases: ≥ marks a high value that may be exact or a test limit, other limits are often not marked, values filed in µg/mL are converted to µM
[1] = test system: Escherichia coli PCM 2057
[2] = test system: Escherichia coli BL21
[3] = test system: Pseudomonas aeruginosa PAO1
[4] = test system: Streptococcus pyogenes M1T1 5448
[5] = test system: Salmonella sp.
[6] = test system: Bacillus licheniformis X39
[7] = test system: Psychrobacter faecalis X29
[8] = test system: Rhodococcus rhodochrous X15
[9] = test system: Staphylococcus aureus ATCC 2592
[10] = test system: Aureobasidium pullulans
[11] = test system: Bacillus megaterium
[12] = test system: Bacillus subtilis ATCC 23857
[13] = test system: Candida albicans ATCC 10231
[14] = test system: Corynebacterium glutamicum ATCC 13032
[15] = test system: Escherichia coli ATCC 25922
[16] = test system: Micrococcus luteus
[17] = test system: Pseudomonas aeruginosa ATCC 27853
[18] = test system: Staphylococcus aureus ATCC 9144
[19] = test system: Bacillus subtilis IFO 3336
[20] = test system: Escherichia coli IFO 3301
[21] = test system: Pseudomonas aeruginosa MR3007
[22] = test system: Staphylococcus aureus 930918-3
[23] = test system: Staphylococcus aureus ATCC 33591
[24] = test system: Enterococcus faecalis
[25] = test system: Escherichia coli W3110
[26] = test system: Pseudomonas aeruginosa PAK
[27] = test system: Staphylococcus aureus
[28] = test system: Streptococcus gordonii Challis DL1
[29] = test system: Streptococcus mitis ATCC 903
[30] = test system: Streptococcus mutans UA159
[31] = test system: Streptococcus sanguinis NY101
[32] = test system: Streptococcus sobrinus ATCC 33478

SMILES: CC[C@H](C)[C@H](NC(=O)[C@H](CC(N)=O)NC(=O)[C@H](C)NC(=O)[C@H](C)N)C(=O)N1CCC[C@H]1C(=O)N[C@@H](Cc1ccccc1)C(=O)N[C@@H](CCCCN)C(=O)N[C@H](C(=O)N[C@@H](Cc1cnc[nH]1)C(=O)N[C@@H](Cc1ccccc1)C(=O)N[C@@H](CCCN=C(N)N)C(=O)N[C@H]1CSSC[C@@H](C(=O)O)NC(=O)[C@H](Cc2ccccc2)NC(=O)[C@H](C)NC(=O)[C@H](C)NC(=O)[C@H](CCCCN)NC1=O)C(C)C [AANIPFKVHFRCKAAFC]
MIC [1]: ≥ 520 µM

SMILES: CC[C@H](C)[C@H](NC(=O)[C@H](CCCCN)NC(=O)[C@H](CCCCN)NC(=O)CNC(=O)[C@H](CCC(=O)O)NC(=O)[C@H](CCC(N)=O)NC(=O)[C@@H](NC(=O)[C@@H](NC(=O)[C@H](CCCCN)NC(=O)[C@H](CCCCN)NC(=O)[C@H](CC(C)C)NC(=O)[C@H](CCCN=C(N)N)NC(=O)[C@H](CCC(N)=O)NC(=O)[C@H](Cc1ccccc1)NC(=O)[C@@H](NC(=O)[C@H](CCCCN)NC(=O)[C@H](CCC(=O)O)NC(=O)[C@@H](NC(=O)CNC(=O)[C@H](C)N)[C@@H](C)O)[C@@H](C)CC)[C@@H](C)O)[C@@H](C)CC)C(=O)N[C@@H](C)C(=O)N[C@@H](CCCCN)C(=O)N[C@@H](CCCN=C(N)N)C(=O)N[C@@H](Cc1c[nH]c2ccccc12)C(=O)N[C@@H](Cc1c[nH]c2ccccc12)C(=O)O [AGTEKIFQRLKKTIQEGKKIAKRWW]
MIC [2]: 0.25 µM (≈ 0.761 µg/mL)
MIC [3]: 16 µM (≈ 48.7 µg/mL)
MIC [4]: 0.125 µM (≈ 0.381 µg/mL)

SMILES: CC[C@H](C)[C@H](NC(=O)[C@H](C)NC(=O)CNC(=O)[C@@H](NC(=O)[C@@H](N)Cc1ccccc1)[C@@H](C)CC)C(=O)N[C@@H](C)C(=O)N[C@@H](CCCN=C(N)N)C(=O)N[C@@H](CC(C)C)C(=O)N[C@@H](CC(C)C)C(=O)N[C@@H](CO)C(=O)N[C@@H](CCCCN)C(=O)N[C@H](C(=O)N[C@@H](Cc1ccccc1)C(=O)O)[C@@H](C)CC [FIGAIARLLSKIF]
MIC [5]: ≥ 90.5 µM

SMILES: CC[C@H](C)[C@@H]1NC(=O)[C@H](CCCCN)NC(=O)[C@@H](NC(=O)[C@@H](NC(=O)[C@@H](NC(=O)[C@H](CCC(N)=O)NC(=O)[C@@H]2CCCN2C(=O)[C@H](CC(C)C)NC(=O)[C@H](Cc2ccccc2)NC(=O)[C@H](CC(N)=O)NC(=O)[C@H](C)NC(=O)[C@@H](NC(=O)[C@@H](NC(=O)CNC(=O)[C@H](C)NC(=O)[C@H](CC(C)C)NC(=O)[C@H](CC(C)C)NC(=O)[C@@H]2CCCN2C(=O)[C@H](CC(C)C)NC(=O)[C@@H](N)Cc2ccccc2)C(C)C)C(C)C)[C@@H](C)CC)[C@@H](C)CC)CSSC[C@@H](C(=O)O)NC(=O)[C@H](CCCCN)NC(=O)[C@H](CCCN=C(N)N)NC(=O)[C@H](C)NC1=O [FLPLLAGVVANFLPQIICKIARKC]
MIC [6]: 9.51 µM (≈ 25 µg/mL)
MIC [7]: 4.76 µM (≈ 12.5 µg/mL)
MIC [8]: 1.18 µM (≈ 3.1 µg/mL)
MIC [9]: 2.4 µM (≈ 6.3 µg/mL)

SMILES: C[C@H](NC(=O)[C@H](CCCCN)NC(=O)[C@H](Cc1c[nH]c2ccccc12)NC(=O)CNC(=O)[C@H](Cc1c[nH]c2ccccc12)NC(=O)[C@@H]1CCCN1C(=O)[C@H](CCCCN)NC(=O)[C@H](CCCCN)NC(=O)CN)C(=O)N[C@@H](CCCCN)C(N)=O [GKKPWGWKAK]
MIC [10]: ≥ 52.7 µM
MIC [11]: 3.29 µM (≈ 3.9 µg/mL)
MIC [12]: ≥ 211 µM
MIC [13]: 105 µM (≈ 125 µg/mL)
MIC [14]: 13.2 µM (≈ 15.6 µg/mL)
MIC [15]: > 211 µM
MIC [16]: ≥ 211 µM
MIC [17]: > 211 µM
MIC [18]: ≥ 211 µM

SMILES: NCCCC[C@H](NC(=O)[C@H](Cc1cnc[nH]1)NC(=O)[C@H](CCCCN)NC(=O)[C@H](Cc1cnc[nH]1)NC(=O)[C@H](CCCCN)NC(=O)[C@H](Cc1cnc[nH]1)NC(=O)[C@H](CCCCN)NC(=O)[C@H](Cc1cnc[nH]1)NC(=O)[C@@H](N)CCCCN)C(=O)N[C@@H](Cc1cnc[nH]1)C(=O)O [KHKHKHKHKH]
MIC [19]: 7.44 µM (≈ 10 µg/mL)
MIC [20]: 7.44 µM (≈ 10 µg/mL)

SMILES: CC[C@H](C)[C@H](NC(=O)[C@H](CCCCN)NC(=O)[C@H](CCC(N)=O)NC(=O)CNC(=O)[C@@H](NC(=O)[C@H](CCCCN)NC(=O)[C@H](CCCCN)NC(=O)[C@H](CC(C)C)NC(=O)[C@H](CCCCN)NC(=O)[C@H](CCC(=O)O)NC(=O)[C@H](CCCCN)NC(=O)[C@@H](NC(=O)[C@@H](N)CCCCN)[C@@H](C)CC)[C@@H](C)CC)C(=O)O [KIKEKLKKIGQKI]
MIC [21]: ≥ 160 µM
MIC [22]: ≥ 160 µM
MIC [23]: ≥ 160 µM

Continued, values first:

MIC [24]: ≥ 438 µM
MIC [25]: ≥ 438 µM
MIC [26]: ≥ 438 µM
MIC [27]: > 438 µM
MIC [28]: ≥ 438 µM
MIC [29]: ≥ 438 µM
MIC [30]: ≥ 109 µM
MIC [31]: ≥ 438 µM
MIC [32]: ≥ 438 µM
SMILES: CC[C@H](C)[C@H](NC(=O)[C@H](Cc1cnc[nH]1)NC(=O)[C@H](CCCCN)NC(=O)[C@@H](NC(=O)[C@@H](N)CC(C)C)[C@@H](C)CC)C(=O)N[C@@H](CC(C)C)C(=O)N[C@@H](Cc1cnc[nH]1)C(=O)N[C@@H](CCCN=C(N)N)C(=O)N[C@@H](CC(C)C)C(N)=O [LIKHILHRL]

MIC [19]: ≥ 92.2 µM
MIC [20]: ≥ 92.2 µM
SMILES: NC(N)=NCCC[C@H](NC(=O)CNC(=O)[C@H](CCCN=C(N)N)NC(=O)CNC(=O)[C@H](CCCN=C(N)N)NC(=O)CNC(=O)[C@H](CCCN=C(N)N)NC(=O)CNC(=O)[C@@H](N)CCCN=C(N)N)C(=O)NCC(=O)O [RGRGRGRGRG]

MIC [24]: ≥ 87.5 µM
MIC [25]: ≥ 87.5 µM
MIC [26]: ≥ 87.5 µM
MIC [27]: > 87.5 µM
MIC [28]: ≥ 87.5 µM
MIC [29]: ≥ 87.5 µM
MIC [30]: ≥ 87.5 µM
MIC [31]: ≥ 87.5 µM
MIC [32]: ≥ 87.5 µM
SMILES: C[C@@H](O)[C@H](NC(=O)[C@H](Cc1c[nH]c2ccccc12)NC(=O)[C@H](Cc1c[nH]c2ccccc12)NC(=O)[C@H](Cc1ccc(O)cc1)NC(=O)[C@H](CO)NC(=O)[C@H](Cc1c[nH]c2ccccc12)NC(=O)[C@@H](N)Cc1c[nH]c2ccccc12)C(=O)N[C@@H](CCC(N)=O)C(=O)N[C@@H](Cc1c[nH]c2ccccc12)C(N)=O [WWSYWWTQW]
